These results are taken from patent publication US12064577B2, “Drug-coated balloon” (Intersect ENT, Inc., priority 2015, dated 2024).

Data set [1] in a line: Drug uptake into sinus tissue after drug coated balloon delivery, ovine model (HPLC of tissue samples). The format is in vivo. Conditions: other: drug coated balloon expanded in the maxillary sinus, sheep, Example 3 balloon (solvent vapor annealed coating) expanded 5 minutes in maxillary sinus, tissue sampled after 7 days. The method, then: (§1) A 30 mm 80A Pellethane® compliant balloon was cleaned with 70% isopropanol and dried in an oven. The balloon was then treated with oxygen plasma and immediately spray coated with a mometasone furoate formulation listed in Table 1. Post-spray pass drying was conducted with nitrogen gas. Next, the drug coated balloon was treated by solvent vapor annealing (i.e., exposed to a solvent vapor) in a sealed chamber saturated with ethanol for four hours at room temperature. After solvent vapor annealing, the balloon was re-folded and heat set using a custom pleating machine. The coated balloon was then sheathed and packaged under nitrogen gas and sterilized by electron beam irradiation.
(§2) A drug coated balloon made using the process described in Example 3 was advanced to a sheep maxillary sinus using a rigid 4 mm endoscope and expanded for 5 minutes, and then deflated and removed from the nostril. After 7 days the animal was sacrificed and tissue samples obtained from the maxillary sinus and surrounding tissues. […] Plasma concentration of mometasone furoate was also measured over 7 days. Referring to Table 3 below and FIG. 3, mometasone furoate (MF) plasma concentration was low and found to decrease over the 7 day period from an initially low value. […] Low systemic exposure generally lowers the risk of a patient experiencing side effects from the delivered drug.

Data set [2] in a line: Plasma concentration of mometasone furoate after drug coated balloon delivery to ovine maxillary sinus. The class given is in vivo. Conditions: other: drug coated balloon expanded in the maxillary sinus, sheep, read-out: MF Plasma Concentration. The method, then:
as §1, §2

Like-named read-outs stand apart in the source and are kept apart here.

For `C[C@@H]1C[C@H]2[C@@H]3CCC4=CC(=O)C=C[C@]4(C)[C@@]3(Cl)[C@@H](O)C[C@]2(C)[C@@]1(OC(=O)c1ccco1)C(=O)CCl` [mometasone furoate], the concentration at 7 days in data set [1] (read-out: mometasone furoate concentration in maxillary sinus tissue) amounted to 146 ng/g; in data set [1] (tissues surrounding the maxillary sinus, read-out: mometasone furoate concentration in tissues surrounding the maxillary sinus), 55 ng/g. Further, the concentration at 0 day in data set [2] (day 0 after Example 3 balloon delivery to maxillary sinus) was 0.3 ng/mL. The concentration at 1 day in data set [2] (day 1 after Example 3 balloon delivery to maxillary sinus) is 0.3 ng/mL. Moreover, the concentration at 4 day in data set [2] (day 4 after Example 3 balloon delivery to maxillary sinus) worked out at 0.05 ng/mL. Besides, in data set [2] (day 7 after Example 3 balloon delivery to maxillary sinus), the concentration at 7 day was under 0.01 ng/mL.
